Source: PMC7024557, “Synthesis of Novel Structural Hybrids between Aza-Heterocycles and Azelaic Acid Moiety with a Specific Activity on Osteosarcoma Cells” (Molecules, 2020)
Each block holds one compound with its values, some of them ahead of it.

How the values were obtained:
[1] = system: HT29 (human colon adenocarcinoma); assay: MTT assay, cell viability; format: cell-based; details: HT-29, after 48 h of treatment, n.a. = non active
From the text: (§1) Cell lines included in the evaluation of toxicity profiles were malignant U2OS, HT29, PC3, and IGROV1, and a normal human adult fibroblast cell line HDFa.
(§2) The human prostate cancer (PC3), human colon cancer (HT29), human bone osteosarcoma (U2OS), and normal human adult fibroblast (HDFa) cell lines were purchased from American Type Culture Collection (ATCC, Manassas, VA, USA), while the human ovarian cancer cell line (IGROV1) was kindly provided by Istituto Nazionale Tumori (IRCCS, Milano, Italy). Cells were cultured in Roswell Park Memorial Institute (RPMI)-1640 medium (Labtek Eurobio, Milan, Italy), supplemented with 10% fetal calf serum (FCS; Euroclone, Milano, Italy) and 2mM L-glutamine (Sigma-Aldrich, Milano, Italy), at 37 °C and 5% CO2 atmosphere. The compounds were dissolved in dimethyl sulfoxide (DMSO) in a 60 mM stock solution. In cell treatments, the final DMSO concentration never exceeded 0.1%.
(§3) U2OS were seeded at 1.5 × 10^4 cells/well in a 96-well culture plastic plate (Orange Scientific, Braine-l’Alleud, Belgium) and, after 24 h of growth, cells were exposed for additional 48 h to increasing concentrations of compounds (0.1 µM and […]) solubilized in RPMI-1640 medium. On the day of measurement, the culture medium was replaced with 0.1 mL of 3-(4,5-dimethylthiazolyl-2)-2,5-diphenyltetrazolium bromide (MTT, Sigma-Aldrich) dissolved in phosphate-buffered saline (PBS) at the concentration of 0.2 mg/mL, and samples were incubated for 2 h at 37 °C. To dissolve the blue-violet formazan salt crystals formed, 0.1 mL of isopropyl alcohol was added to each well and incubated for 20 min. The absorbance at 570 nm was measured using a multiwell plate reader (Wallac Victor2, PerkinElmer, Milano, Italia), and viability was compared with that of untreated cells, used as controls.

[2] = system: U2OS (human osteosarcoma); assay: MTT assay, cell viability; format: cell-based; details: for IC50: Homo sapiens, U2OS, after 48 h of treatment, n.a. = non active; for sensitivity of U2OS to the compound (IC50 analysis): only U2OS among tumor cell lines
From the text: as §1, §2, §3

[3] = system: U2OS cell line; design: method as in PMID 31646829, PMID 26298721; details: ref [30],[31]; cited from earlier work
[4] = system: U2OS cells; assay: Cell-cycle assay by flow cytometry (PI fluorescence, forward scatter); format: cell-based, human; details: 24 h; for mean channel of FS distribution (nuclear size): U2OS nuclei, 35 μM of 6, 50 μM of 5a or 8a, control cells 730; for effect on cell-cycle progression: U2OS, 35 μM of compound 6, 50 μM of 5a, 50 μM of 8a
Method: To infer whether their effects were due to interference with cell-cycle progression, DNA profiles of cultured cells were examined by flow cytometry. […] As clear from Figure 3, the nuclei in all cell-cycle phases were affected.
For the cell-cycle assay, U2OS cells were treated for 24 h with 35 μM of compound 6, 50 μM of 5a, or 50 μM of 8a, detached with 0.11% trypsin (Sigma-Aldrich, S.Louis, MO, USA)/0.02% ethylenediaminetetraacetic acid (EDTA) (Sigma-Aldrich, S.Louis, MO, USA), washed in PBS, and centrifuged. The pellet was resuspended in 0.01% Nonidet P-40 (Sigma-Aldrich, S.Louis, MO, USA), 10 μg/mL RNase (Sigma-Aldrich, S.Louis, MO), 0.1% sodium citrate, and 50 μg/mL propidium iodide (PI) (Sigma-Aldrich, S.Louis, MO, USA), for 30 min at room temperature in the dark. PI fluorescence and forward scatter (FS) signals were analyzed using a Beckman Coulter Epics XL-MCL flow cytometer. DNA distribution in the cell cycle was analyzed by the MODFIT 5.0 software. As the signal collected by a multichannel analyzer, the mean of the FS distribution is expressed as mean channel.

[5] = system: acetylated histones H2/H3 and H4 in U2OS cells; assay: Histone acetylation, Western blot with anti-acetyl lysine antibody; format: cell-based, human; details: 6 h, densitometry normalized on histone H1, vs control
From the text: To identify acetylated histones, we analyzed the nuclear cell lysates by Western blot using a 15% polyacrylamide gel electrophoresis. After electrophoresis, the proteins were transferred to a nitrocellulose membrane and then immunoblotted with an anti-acetyl lysine monoclonal antibody. […] Differences in the density of bands are thought to reflect differences in protein acetylation levels. Histone acetylation signals were quantified by densitometry and normalized on histone H1. Histones H2/H3 acetylation increased by 28% upon treatment with 6 for 6 h with no effect on H4 acetylation, whereas compound 8a induced hyperacetylation by 30% on histone H4 only.
U2OS were cultured with 5a, 6, or 8a, for 6 h, and the histone fraction was immediately extracted. Cells were harvested using 0.11% trypsin and 0.02% EDTA, washed twice with 10 mM sodium butyrate (NaBu) in PBS, and nuclei were isolated according to Amellem et al.. The nuclear pellet was suspended in 0.1 mL of ice-cold water using a Vortex mixer, and concentrated H2SO4 was added to the suspension to give a final concentration of 0.4 N. After incubation at 4 °C for 1 h, the suspension was centrifuged for 5 min at 14,000× g, and the supernatant was taken and mixed with 1 mL of acetone. After overnight incubation at −20 °C, the coagulate material was collected by microcentrifugation and air-dried, and proteins were quantified using a protein assay kit (Bio-Rad, Hercules, CA, USA). Histones were analyzed as previously described. Briefly, histones were resolved by 15% SDS-PAGE and immunoblotted with anti-acetylated lysine antibody (Cell Signaling Technology, Beverly, MA, USA); the detection of immunoreactive bands was performed with a secondary antibody conjugated with horseradish peroxidase and developed with an enhanced chemiluminescence (ECL) system, developed with the enhanced chemiluminescence system Clarity Western (Bio-Rad, Hercules, CA, USA), and quantification was done by Fluor-S Max MultiImager (Bio-Rad). Histone acetylation signals were quantified by densitometry and normalized on histone H1.

[6] = system: U2OS cells; assay: Hoechst 33,342 nuclear staining, confocal microscopy; format: cell-based, human; details: 24 h
Method: These effects induced by the above compounds on histone acetylation are not associated with events involved in apoptotic death.
Nuclear morphology was assayed using a specific dye Hoechst 33,342. U2OS treated cells were washed, fixed, and then stained with 1 µM Hoechst 33,342 (Sigma-Aldrich, St Louis, MO, USA) for 15 min. Samples were embedded in Mowiol and analyzed using a Nikon C1s confocal laser-scanning microscope, equipped with a Nikon PlanApo 40×, 1.4 numerical aperture (NA) oil immersion lens. Images were quantified by ImageJ software (IMAJ 1.x).

[7] = system: IGROV1 (human ovarian carcinoma); assay: MTT assay, cell viability; format: cell-based; details: IGROV-1, after 48 h of treatment, n.a. = non active
From the text: as §1, §2, §3

[8] = system: PC3 (human prostatic carcinoma); assay: MTT assay, cell viability; format: cell-based; details: after 48 h of treatment, n.a. = non active
From the text: as §1, §2, §3

[9] = system: human osteosarcoma growth; design: method as in PMID 24344034, PMID 30697272; details: ref [32],[33]; read-out: IC50, inhibition of human osteosarcoma growth; cited from earlier work

Structure (SMILES): COC(=O)CCCCCCCC(=O)Nc1ccccn1 [4a, Methyl 9-oxo-9-(pyridin-2-ylamino)nonanoate]
- IC50 [1]: > 100 µM
- IC50 [2]: > 100 µM
- melting point: 59 to 60 °C

Structure (SMILES): COC(=O)CCCCCCCC(=O)Nc1cccnc1 [4b, Methyl 9-oxo-9-(pyridin-3-ylamino)nonanoate]
- IC50 [1]: > 100 µM
- IC50 [2]: > 100 µM
- melting point: 75.5 to 77.7 °C

Structure (SMILES): COC(=O)CCCCCCCC(=O)Nc1ccncc1 [4c, Methyl 9-oxo-9-(pyridin-4-ylamino)nonanoate]
- IC50 [2]: > 100 µM
- melting point: 83 to 85 °C

Structure (SMILES): O=c1[nH]cc(F)c(=O)[nH]1 [5-fluorouracile]
- IC50 [3]: 0.3 µM

Structure (SMILES): N.N.[Cl][Pt][Cl] [Cisplatin]
- IC50 [3]: 1.67 µM

Structure (SMILES): COC(=O)CCCCCCCC(=O)N(C(=O)CCCCCCCC(=O)OC)c1ncccn1 [compound 6, Dimethyl 9,9’-(pyrimidin-2-ylazanediyl)bis(9-oxononanoate)]
- IC50 [1]: > 100 µM
- IC50 [2]: 35 µM
- sensitivity of U2OS to the compound (IC50 analysis) [2]: sensitive
- mean channel of FS distribution (nuclear size) [4]: 905
- effect on cell-cycle progression [4]: increase in the gap 0/gap 1 (G0/G1) fraction, with concomitant decrease in the G2/mitosis (M) phase
- increase of histone H4 acetylation [5]: no effect
- increase of histones H2/H3 acetylation [5]: 28%
- nuclear morphology by Hoechst 33,342 staining [6]: increase in nuclear size

Structure (SMILES): COc1cccc2c1C(=O)c1c(O)c3c(c(O)c1C2=O)C[C@@](O)(C(=O)CO)C[C@@H]3O[C@H]1C[C@H](N)[C@H](O)[C@H](C)O1 [doxorubicin]
- IC50 [3]: 0.5 µM

Structure (SMILES): CCCC(=O)[O-].[Na+] [sodium butyrate]
- IC50 [9]: 5 µM

Structure (SMILES): CC(/C=C/C(=O)NO)=C\[C@@H](C)C(=O)c1ccc(N(C)C)cc1 [trichostatin A]
- IC50 [9]: 0.5 µM

Further lines, with some results ahead:

- IC50 [2]: 50 µM
- sensitivity of U2OS to the compound (IC50 analysis) [2]: sensitive
Structure (SMILES): COC(=O)CCCCCCCC(=O)Nc1ncccn1 [5a, Methyl 9-oxo-9-(pyrimidin-2-ylamino)nonanoate]
- mean channel of FS distribution (nuclear size) [4]: 735
- effect on cell-cycle progression [4]: slight accumulation in the synthesis (S) phase
- increase of histone H4 acetylation [5]: 22%
- increase of histones H2/H3 acetylation [5]: 89%
- nuclear morphology by Hoechst 33,342 staining [6]: dim staining of nuclei

- IC50 [7]: > 100 µM
- IC50 [2]: > 100 µM
- melting point: 92 to 94.2 °C
Structure (SMILES): COC(=O)CCCCCCCC(=O)Nc1ccncn1 [5b, Methyl 9-oxo-9-(pyrimidin-4-ylamino)nonanoate]

- IC50 [1]: > 100 µM
- IC50 [7]: > 100 µM
- IC50 [8]: > 100 µM
- melting point: 78.6 to 80.2 °C
Structure (SMILES): COC(=O)CCCCCCCC(=O)Nc1cncnc1 [5c, Methyl 9-oxo-9-(pyrimidin-5-ylamino)nonanoate]

- IC50 [1]: > 100 µM
- IC50 [8]: > 100 µM
- IC50 [2]: 50 µM
- sensitivity of U2OS to the compound (IC50 analysis) [2]: sensitive
Structure (SMILES): COC(=O)CCCCCCCC(=O)n1cnc2ccccc21 [8a, Methyl 9-(1H-benzo[d]imidazol-1-yl)-9-oxononanoate]
- mean channel of FS distribution (nuclear size) [4]: 780
- effect on cell-cycle progression [4]: slight accumulation in the synthesis (S) phase
- increase of histone H4 acetylation [5]: 30%
- nuclear morphology by Hoechst 33,342 staining [6]: dim staining of nuclei

- IC50 [7]: > 100 µM
- melting point: 55.5 to 57.2 °C
Structure (SMILES): COC(=O)CCCCCCCC(=O)n1nnc2ccccc21 [8b, Methyl 9-(1H-benzo[d][1,2,3]triazol-1-yl)-9-oxononanoate]
